Data from patent US20190255175A1, “ACTIVATION OF TRPA1+ NOCICEPTORS IN THE VAGUS NERVE ATTENUATES SYSTEMIC INFLAMMATION” (THE FEINSTEIN INSTITUTE FOR MEDICAL RESEARCH, priority 2018, published 2019).

Legend:
vagus nerve = assay: Cervical vagus nerve electrophysiological recording after IL-1β challenge; type: in vivo, mice
Protocol: FIG. 3. TRPA1 is required for IL-1β induced vagus nerve signaling. Vagus nerve firing rate in 60s-Bins (mean±SEM) starting 5 min prior to IL-1β injection (350 ng/kg) indicated by arrow followed by 5 min post injection time.
Mice were induced with general anesthesia using isoflurane at 2.5% in 100% oxygen at a flow rate of 1 L/min. Once anesthetized, the mouse was moved to a supine position with the isoflurane maintained at 2.0% during surgery. The nerve was then isolated as described in previous publications^10,11,17. The core body temperature was monitored with a rectal probe and maintained around 37° C. with a heating pad and heat lamp. Prior to recording and nerve placement within the cuff, the electrode was submerged briefly in saline solution.
The electrophysiological signals were digitized from the vagus nerve using a Plexon data acquisition system (Omniplex, Plexon Inc., Dallas, Tex.). Recordings were sampled at 40 kHz with a 120 Hz filter and 50 gain. All signals were recorded from a bipolar cuff electrode referenced to the animal ground placed between the right salivary gland and the skin. In experiments with IL-1β challenge, following acquisition of the baseline activity (10 min), 350 ng/kg recombinant human IL-1β (eBioscience, San Diego, Calif.) was administered intraperitoneally; recordings were then continued for 10 min post-injection.
Analysis of raw recordings was done on Spike2 software (version 7, CED). Raw recordings were filtered (using a high pass filter) and smoothed. To identify neural signals, a user-specific adaptive threshold was employed. All signals were identified as neuronal or non-neuronal. Non-neuronal signals, which consisted mainly of cardiac and respiratory components, were manually removed. All recordings with no identifiable neuronal spikes were removed from analyses.
To recognize how knocking out TRPA1 further effects inflammatory signaling, TRPA1 KO and WT mice were injected with either saline or IL-1β ([…]).
To further determine fiber specificity, a TRPV1 cell depletion model was employed by breeding TRPV1-Cre mice with ROSA-DTA mice. […] To identify if TRPV1 itself is necessary for propagation of the signal, recordings were done in a genetic TRPV1 knockout (TRPV1 KO) mouse. […] To determine a molecular target on TRPV1+ neurons mediating afferent IL-1β signaling, the cation channel TRPA1 was identified. TRPA1 is found on a subset of TRPV1+ neurons; approximately 30%. However, TRPA1 co-localized with TRPV1 on 97% of TRPA1+ neurons^26.

[1] = IL-1β induced inflammation: serum and spleen cytokines; type: in vivo; details: TRPA1 KO mice; after IL-1β administration; 3 hours
Protocol: Mice were injected with 3.2 μg/kg IL-1β ip or saline. Three hours later the mice were euthanized, and blood, spleen, and two brain regions collected. Blood was collected by cardiac puncture. To obtain serum from these samples, blood was allowed to clot for approximately 45 min to 1 h. The blood was then spun at 5,000 rpm for 10 min and 10,000 For 2 min. Supernatants (serum) were collected and stored at −20° C. prior to use. The spleen was homogenized using a bullet blender homogenizer (Next Advance, Averill Park, N.Y., USA) and the recommended bead homogenization kit and protocol in a 4° C. walk-in refrigerator. The homogenized sample was then spun down at 15,000 rpm for 10 min with the supernatants collected and stored at −20° C. Splenic protein level was measured using the Bradford assay. IL-6, IL-1β, KC/Gro (CXCL1), and IL-1β for both serum and spleen were measured on a custom mouse inflammatory electrochemiluminescent kit (Meso Scale Discovery, Gaithersburg, Md., USA) according to manufacturer's recommendations. The brain stem region was collected on ice, using a binocular dissection microscope and placed in the same tube. Brain regions were snap frozen on dry ice and transferred to storage at −80° C.
The serum and splenic tissue of these mice were then analyzed for known downstream signaling molecules of IL-1β, IL-6, IL-1β and KC/GRO (CXCL1).

[2] = test system: sensory nodose ganglion neurons; assay: Calcium influx (fluorescence) in sensory nodose ganglion neurons from VGlut2-GCaMP3 mice; type: cell-based; details: IL-1β 20 μg/ml; 6 out of 332 neurons
Protocol: (§1) Using patch clamp recordings, IL-1β responses were recorded in nodose ganglion neurons. Application of IL-1β (20 μg/ml) induced calcium influx as indicated by increase of fluorescence in 6 out of 332 (1.8%) sensory nodose ganglion neurons from VGlut2-GCaMP3 mice. Next, whole-cell patch clamp recordings were carried out on the same neurons that responded to IL-1β in calcium influx analysis. When the membrane potential was held at −65 mV, bath application of IL-1β (20 μg/ml) produced slow inward currents in 4 out of 332 (1.2%) nodose neurons. The amplitude of IL-1β induced currents are 108±23 pA (n=4). […] In current-clamp mode, IL-1β reduced action potential threshold from −25±2 mV to −31±3 mV (n=4). […] To further determine the potential interaction of TRPA1 with IL-1β, nodose ganglion neurons from TRPA1 KO mice were examined in a culture system. […] IL1R1 co-localizes with TRPA1 on nodose ganglion neurons, as was determined using immunohistochemical staining.

nodose ganglion neurons = assay: Whole-cell patch clamp recordings of nodose ganglion neurons; type: cell-based, mice
Protocol: Whole-cell patch clamp recordings were made with glass pipettes pulled on a P-97 electrode puller (Sutter Instruments, Novato, Calif.). The resistance of the pipettes was 2-4 MΩ when filled with an intracellular solution (in mM: CsCl 140, HEPES 10, EGTA 5, Mg-ATP 2, NaGTP 0.3, MgCl2 2, Phosphocreatine 10, pH 7.25 adjusted with CsOH). Cells were superfused at a rate of 2 ml/min with an external bath solution containing the following (in mM): 150 NaCl, 2.5 KCl, 10 HEPES, 10 D-glucose, 2 CaCl2, and 1 MgCl2, pH 7.3-7.4. Experiments were performed at room temperature (22-24° C.). Currents from neurons were monitored with an Multiclamp 700B amplifier (Molecular Devices, Union City, Calif.), acquired through Digidata 1550B (Molecular Devices) onto a computer using pClamp 11 software (Molecular Devices). Data were analyzed using Clampfit 11 (Molecular Devices). All chemicals used for electrophysiological recordings were purchased from Sigma. All drugs and solutions were made fresh from drug stock solutions.
as §1

## IL-1β: interleukin 1β; recombinant human IL-1β for nerve recordings, murine (rmIL-1β) for thermoregulation
Vagus nerve; TRPA1 KO mice
  Vagus nerve activation: fails to induce activation of the vagus nerve
Vagus nerve; TRPV1 KO mice
  Vagus nerve activity: significant increase
Vagus nerve; TRPV1 cell depletion model (TRPV1-Cre x ROSA-DTA mice)
  Vagus nerve activity: No significant enhancement of vagus nerve activity
Vagus nerve; wild type mice
  Vagus nerve activation: induces activation of the vagus nerve
[1]
  IL-6, IL-1β and KC/GRO (CXCL1) in serum and spleen: further increases
[2]
  Neurons showing calcium influx (increase of fluorescence): 1.8%
Nodose ganglion neurons; IL-1β 20 μg/ml bath application, held at −65 mV, 4 out of 332 neurons
  Neurons with slow inward currents: 1.2%
Nodose ganglion neurons; IL-1β 20 μg/ml, −65 mV, n=4
  Amplitude of IL-1β induced currents: 108±23 pA
Nodose ganglion neurons; current-clamp mode, reduced from −25±2 mV, n=4
  Action potential threshold after IL-1β: −31±3 mV
